Reference: patent publication US20050054680A1, “Agonists and antagonists of 5h3-like receptors of invertebrates as pesticides” (priority 2001, published 2005)
Entries after “also recorded” stand apart in the source; their conditions may differ. Where two headings read alike, the source gives them in different places.

Columns and labels:
[1] = system: C. elegans of the Bristol N2 strain; assay: Automated feeding assay (bead ingestion, pharyngeal pumping); type: in vivo, Caenorhabditis elegans; details: for Effect of 0.325 mM compound on serotonin-stimulated (0.325 mM) bead ingestion: 0.325 mM compound plus 0.325 mM serotonin; for Effect of 0.325 mM compound on bead ingestion: no added serotonin; for IC50 / IC50 (inhibitory concentration 50%) for bead ingestion: estimated from log dose response curves (FIG. 2); for IC50: read-out: IC50 (inhibitory concentration 50%) for bead ingestion
From the text: An automated screening assay has been developed and described in the present Applicants' co-pending International patent application No. PCT/AU00/01476 (WO 01/40500). Using the screening assay, twenty novel tropanyl ester compounds as well as tropanyl dichlorobenzoate were screened for nematicidal activity.
The assay used was essentially that described in WO 01/40500 with minor modifications. The protocol was as follows:
(1.) Plate Culture. C. elegans of the Bristol N2 strain (Brenner, 1974) were cultured at room temperature on HMS174 E. coli bacteria (Campbell et al., 1978) spread on a 150 mm diameter petri dish containing enhanced NGM 1.7% (w/v) (Avery and Horvitz, 1990) agar until a good population of adult nematodes was present, but food reserves had not been exhausted.
(2.) The nematodes were collected by washing each plate with 10 mL and then 5 mL of M9 buffer plate and filtering over a 20 μm nylon mesh (Nytal—Catalogue no. BCNY-HDO02-20) to retain adult nematodes. The nematodes from 7-8 of these 150 mm plates were collected together and placed on a 63 μm mesh filter (Nytal—product code PA-25-43) and washed with 200-250 mL of M9 buffer or MilliQ water. This procedure allows the passage of nematodes whilst retaining larger debris. Finally the nematodes were collected over a 20 μm mesh.
(3.) Adult nematodes were collected from the mesh using a pasteur pipette and allowed to settle in an eppendorf tube at 1×g for 10 minutes. This packed volume was used to calculate quantities of nematodes for experiments and assays, although nematodes were resuspended in 2-10 volumes of M9 buffer for transfer. Quantitative transfers of nematodes were performed using a Gilson Pipetman P200 or equivalent and a yellow tip with 5 mm cut off the sharp end.
(4.) Assays were performed in 24 well tissue-lture clusters (Nunc multidish). The final assay volume was 230 μL comprising the following sequential additions: • (i) M9 buffer—sufficient to bring the final volume to 230 μL • ([…]) Any other pharmacological agents—≦1.5 μL of drug in DMSO (or water) • (iv) Nematodes—150 μL of a 10% (v/v) stock in M9 • (v) Fluorescent beads—23 μL of a 1% w/v solution in M9.
Where serotonin or other pharmacological agents were omitted, the volume was adjusted with M9 buffer. Control experiments included 1.5 μL of DMSO except in the case of ondansetron, which was added from an aqueous stock.
The fluorescent beads were 1.30 μm uniformly dyed microsphere beads with a hydrophilic surface-coating. The fluorescence excitation maximum was 420 nm and the emission maximum was 485 nm (catalogue code FC04F, carboxylate-modified polystyrene/polyvinyl copolymer, manufactured and supplied by Bangs Laboratories, Inc. 9025 Technology Drive, Fishers, INDIANA 46038-2886, USA).
(5.) The nematodes were incubated for 60 minutes after the addition of the fluorescent beads at room temperature (≈21° C.) without shaking. The assay was terminated by the addition of 20 μL of 100 mM sodium azide.
(6.) Two aliquots of 100 μl each were transferred from each well of the 24 well cluster to a pair of wells in a pre-blocked mesh-bottomed plate (see below for details of the mesh-bottomed plate) and the buffer/bead suspension was immediately aspirated away through the filter mesh using a Millipore Multiscreen vacuum manifold.
(7.) A total of eight washing steps were performed. Each of the first five washes used 200 μL of 1%(w/v) sodium lauryl sulphate (SDS—Sigma) in M9 buffer. The third and fifth washes involved pipetting the solution up and down in the wells of the plate ten times each wash. The SDS washes were followed by three washes with 200 μL of M9 buffer only. At the end of each washing step, solutions were aspirated away through the mesh using a Millipore Multiscreen vacuum manifold. […]

nematode C. elegans = details: cited from earlier work
insects = details: in vivo; cited from earlier work
[2] = Caenorhabditis elegans, in the presence of 1 mM serotonin
[3] = in the presence of 1 mM serotonin
[4] = as summarised in the background, no concentration given

SMILES | Effect of 0.325 mM compound on serotonin-stimulated (0.325 mM) bead ingestion [1] | Effect of 0.325 mM compound on bead ingestion [1] | other results
CN1[C@@H]2CC[C@H]1CC(OC(=O)c1c[nH]c3ccccc13)C2 (stereo partly shown) [DCP-45240 (20), 1H-indole-3-carboxylic acid tropan-3-yl ester] | reverses markedly | no effect | IC50 [1, 2]: 316 µM
COC(=O)[C@H]1CC[C@H](C(=O)OC2C[C@H]3CC[C@@H](C2)N3C)CC1 (relative stereo) [DCP-45235 (15), trans-cyclohexane-1,4-dicarboxylic acid methyl ester tropan-3-yl ester] | no effect/reverses | no effect | –
CN1[C@@H]2CC[C@H]1CC(OC(=O)c1cc(F)ccc1F)C2 (stereo partly shown) [DCP-45226 (6), 2,5-difluoro-benzoic acid tropan-3-yl ester] | reverses marginally | no effect | –
CN1[C@@H]2CC[C@H]1CC(OC(=O)c1ccc(Cl)cc1)C2 (stereo partly shown) [DCP-45225 (5), 4-chloro-benzoic acid tropan-3-yl ester] | no effect | no effect | –
CN1[C@@H]2CC[C@H]1CC(OC(=O)c1ccccc1F)C2 (stereo partly shown) [DCP-45229 (9), 2-fluoro-benzoic acid tropan-3-yl ester] | strongly reversed; also recorded: reverses marginally | no effect | Anomalous activity in dose response for bead ingestion ([1]; in the presence of 1 mM serotonin, at lower doses): very strong stimulatory effects; IC50 (inhibitory concentration 50%) for bead ingestion [1, 3]: impossible to estimate
CC(Oc1ccccc1)C(=O)OC1C[C@H]2CC[C@@H](C1)N2C (stereo partly shown) [DCP-45230 (10), 2-phenoxy-propionic acid tropan-3-yl ester] | reverses marginally | inhibits | –
CN1[C@@H]2CC[C@H]1CC(OC(=O)c1ccccc1Cl)C2 (stereo partly shown) [DCP-45222 (2), 2-chloro-benzoic acid tropan-3-yl ester] | no effect | no effect | –
COC(=O)C12C3C4C1C1C2C3C41C(=O)OC1C[C@H]2CC[C@@H](C1)N2C (stereo partly shown) [DCP-45232 (12), cubane-1,4-dicarboxylic acid methyl ester tropan-3-yl ester] | – | no effect | Effect of 0.325 mM compound on serotonin-stimulated (0.325 mM) bead ingestion ([1]; observed with an unpurified mixture): reverses marginally^1
Cc1nccn1CC1CCc2c(c3ccccc3n2C)C1=O (stereo not shown) [ondansetron] | – | – | IC50 [1, 2]: 562 µM; Effect on pharyngeal pumping (nematode C. elegans; [4]): profoundly inhibited; Effect on serotonin-stimulated rate of pharyngeal pumping (nematode C. elegans; drug 0.325 mM, serotonin 0.325 mM): antagonised the stimulatory effect; Detrimental effects in insects (insects): significant detrimental effects, including some mortality
COC(=O)c1cccc(C(=O)OC2C[C@H]3CC[C@@H](C2)N3C)c1 (stereo partly shown) [DCP-45237 (17), isophthalic acid methyl ester tropan-3-yl ester] | no effect | no effect | –
COC(=O)c1ccccc1C(=O)OC1C[C@H]2CC[C@@H](C1)N2C (stereo partly shown) [DCP-45238 (18), phthalic acid methyl ester tropan-3-yl ester] | strongly reversed; also recorded: reverses markedly | no effect | –
CN1[C@@H]2CC[C@H]1CC(OC(=O)C1CC1)C2 (stereo partly shown) [DCP-45233 (13), cyclopropanecarboxylic acid tropan-3-yl ester] | potentiates marginally | no effect | –
CN1[C@@H]2CC[C@H]1CC(OC(=O)c1c(F)cccc1F)C2 (stereo partly shown) [DCP-45227 (7), 2,6-difluoro-benzoic acid tropan-3-yl ester] | reverses marginally | no effect | –
CN1[C@@H]2CC[C@H]1CC(OC(=O)c1ccccc1)C2 (stereo partly shown) [DCP-45221 (1), benzoic acid tropan-3-yl ester] | potentiates marginally | stimulates marginally | –
COC(=O)c1cncc(C(=O)OC2C[C@H]3CC[C@@H](C2)N3C)c1 (stereo partly shown) [DCP-45239 (19), pyridine-3,5-dicarboxylic acid methyl ester tropan-3-yl ester] | potentiates marginally | no effect | –
CN1[C@@H]2CC[C@H]1CC(OC(=O)c1ccc(Cl)c(Cl)c1)C2 (stereo partly shown) [DCP-45228 (8), 3,4-dichloro-benzoic acid tropan-3-yl ester] | strongly reversed; also recorded: reverses strongly | reduced; also recorded: inhibits | Implied IC50 without serotonin (extrapolated from IC50 ratio, not measured) ([1]; Caenorhabditis elegans, in the absence of added serotonin, implied from the tropanyl dichlorobenzoate IC50 ratio with and without serotonin, read-out: IC50 and therefore chronic EC50 implied from differential factor): ~6 µM
Cc1[nH]c2ccc(O)cc2c1CCN.Cl [2-methyl-5-hydroxytryptamine, 2-methyl-5-hydroxytryptamine hydrochloride] | – | – | Effect on locomotion (nematode C. elegans; 3 mM): did not inhibit locomotion; Effect on pharyngeal pumping (nematode C. elegans; 3 mM): strongly stimulated; Effect on pharyngeal pumping (nematode C. elegans; [4]): strongly and specifically stimulated
COC(=O)c1ccc(C(=O)OC2C[C@H]3CC[C@@H](C2)N3C)cc1 (stereo partly shown) [DCP-45236 (16), terephthalic acid methyl ester tropan-3-yl ester] | no effect | no effect | –
CN1[C@@H]2CC[C@H]1CC(OC(=O)c1cccc(CCl)c1)C2 (stereo partly shown) [DCP-45223 (3), 3-chloromethyl-benzoic acid tropan-3-yl ester] | no effect | no effect | –
CN1[C@@H]2CC[C@H]1CC(OC(=O)c1cccc(Cl)c1)C2 (stereo partly shown) [DCP-45224 (4), 3-chloro-benzoic acid tropan-3-yl ester] | strongly reversed; also recorded: reverses strongly | no effect | IC50 (inhibitory concentration 50%) for bead ingestion [1, 3]: impossible to estimate
CN1[C@@H]2CC[C@H]1CC(OC(=O)Cc1ccccc1)C2 (stereo partly shown) [DCP-45231 (11), phenyl-acetic acid tropan-3-yl ester] | reverses marginally | inhibits | –
CN1[C@@H]2CC[C@H]1CC(OC(=O)C1CCC1)C2 (stereo partly shown) [DCP-45234 (14), cyclobutanecarboxylic acid tropan-3-yl ester] | no effect | no effect | –
